Experiments:
[1] = Ratio of unbound drug level in mouse brain to plasma at 10 mg/kg, po; type: ADME, organism-based; conditions: read-out: K(p,uu,brain)
[2] = target: Proto-oncogene tyrosine-protein kinase Src (Homo sapiens) (UniProt P12931); assay: Inhibition of SRC ATP binding site (QGAKFPIKWTAPEAALYGR) in human PBMC at 1 uM
[3] = target: STE20-like serine/threonine-protein kinase (Homo sapiens) (UniProt Q9H2G2); assay: Inhibition of SLK conserved Lys2 (DLKAGNILFTLDGDIK) in human PBMC at 0.1 uM
Chain of STE20-like serine/threonine-protein kinase (Homo sapiens) (Q9H2G2 whole entry, looked up): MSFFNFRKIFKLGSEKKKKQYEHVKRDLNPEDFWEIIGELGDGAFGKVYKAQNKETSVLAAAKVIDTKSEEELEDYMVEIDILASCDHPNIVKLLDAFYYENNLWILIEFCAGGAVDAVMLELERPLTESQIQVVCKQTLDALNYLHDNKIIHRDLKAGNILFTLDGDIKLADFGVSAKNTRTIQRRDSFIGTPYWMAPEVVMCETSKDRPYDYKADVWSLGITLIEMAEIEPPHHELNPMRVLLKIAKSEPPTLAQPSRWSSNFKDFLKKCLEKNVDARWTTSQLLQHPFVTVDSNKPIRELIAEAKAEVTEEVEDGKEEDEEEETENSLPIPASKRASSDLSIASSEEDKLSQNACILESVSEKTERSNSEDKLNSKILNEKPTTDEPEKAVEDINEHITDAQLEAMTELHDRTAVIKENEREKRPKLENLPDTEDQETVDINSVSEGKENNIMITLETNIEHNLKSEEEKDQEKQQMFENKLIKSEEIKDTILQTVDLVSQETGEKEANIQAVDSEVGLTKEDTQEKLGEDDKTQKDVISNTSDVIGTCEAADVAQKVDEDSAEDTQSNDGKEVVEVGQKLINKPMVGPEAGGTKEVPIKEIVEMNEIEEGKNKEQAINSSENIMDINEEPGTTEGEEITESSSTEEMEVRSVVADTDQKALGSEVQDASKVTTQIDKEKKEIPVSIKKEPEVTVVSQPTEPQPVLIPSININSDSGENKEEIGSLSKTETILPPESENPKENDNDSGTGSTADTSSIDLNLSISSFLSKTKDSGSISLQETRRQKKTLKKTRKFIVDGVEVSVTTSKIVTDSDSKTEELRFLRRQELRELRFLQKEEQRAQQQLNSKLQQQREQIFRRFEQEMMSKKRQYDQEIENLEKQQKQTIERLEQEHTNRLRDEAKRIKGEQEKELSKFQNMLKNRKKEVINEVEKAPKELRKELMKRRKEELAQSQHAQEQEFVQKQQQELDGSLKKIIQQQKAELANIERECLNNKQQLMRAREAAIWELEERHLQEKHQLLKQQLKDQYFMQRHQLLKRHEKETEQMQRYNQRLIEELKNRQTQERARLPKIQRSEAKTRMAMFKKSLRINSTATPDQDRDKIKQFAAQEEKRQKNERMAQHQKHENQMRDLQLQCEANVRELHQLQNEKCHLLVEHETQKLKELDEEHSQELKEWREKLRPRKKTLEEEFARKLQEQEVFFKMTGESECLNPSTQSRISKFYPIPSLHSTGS

[4] = target: Tyrosine-protein kinase BTK (Homo sapiens) (UniProt Q06187); assay: Inhibition of BTK labeling at activation Loop (YVLDDEYTSSVGSKFPVR) in human PBMC at 1 uM
Chain of Tyrosine-protein kinase BTK (Homo sapiens) (Q06187 whole entry, the tested form may be a part): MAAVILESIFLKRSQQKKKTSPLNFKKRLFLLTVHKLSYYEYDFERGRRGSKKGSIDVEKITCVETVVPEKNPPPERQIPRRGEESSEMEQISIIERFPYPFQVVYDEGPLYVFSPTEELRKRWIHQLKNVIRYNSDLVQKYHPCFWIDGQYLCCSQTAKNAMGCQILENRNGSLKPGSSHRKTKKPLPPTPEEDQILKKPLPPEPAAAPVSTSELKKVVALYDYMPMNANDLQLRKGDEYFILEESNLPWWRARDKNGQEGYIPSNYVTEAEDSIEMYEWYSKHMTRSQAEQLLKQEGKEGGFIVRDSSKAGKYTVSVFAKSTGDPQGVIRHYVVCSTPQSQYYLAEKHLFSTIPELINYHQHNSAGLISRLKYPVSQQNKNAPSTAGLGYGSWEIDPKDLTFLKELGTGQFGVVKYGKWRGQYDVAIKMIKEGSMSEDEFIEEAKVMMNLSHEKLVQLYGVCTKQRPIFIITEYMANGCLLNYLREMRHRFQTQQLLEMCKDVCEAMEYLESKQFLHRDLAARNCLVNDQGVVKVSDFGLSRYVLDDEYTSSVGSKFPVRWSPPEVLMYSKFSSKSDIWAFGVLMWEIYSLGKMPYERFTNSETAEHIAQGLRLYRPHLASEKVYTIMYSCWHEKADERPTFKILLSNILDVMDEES

[5] = target: T1, Tyrosine-protein kinase JAK3 (Homo sapiens) (UniProt P52333); assay: Inhibition of JAK3 domain2 activation Loop (IADFGLAKLLPLDKDYYVVR) in human PBMC at 0.1 uM
T1 sequence (whole entry): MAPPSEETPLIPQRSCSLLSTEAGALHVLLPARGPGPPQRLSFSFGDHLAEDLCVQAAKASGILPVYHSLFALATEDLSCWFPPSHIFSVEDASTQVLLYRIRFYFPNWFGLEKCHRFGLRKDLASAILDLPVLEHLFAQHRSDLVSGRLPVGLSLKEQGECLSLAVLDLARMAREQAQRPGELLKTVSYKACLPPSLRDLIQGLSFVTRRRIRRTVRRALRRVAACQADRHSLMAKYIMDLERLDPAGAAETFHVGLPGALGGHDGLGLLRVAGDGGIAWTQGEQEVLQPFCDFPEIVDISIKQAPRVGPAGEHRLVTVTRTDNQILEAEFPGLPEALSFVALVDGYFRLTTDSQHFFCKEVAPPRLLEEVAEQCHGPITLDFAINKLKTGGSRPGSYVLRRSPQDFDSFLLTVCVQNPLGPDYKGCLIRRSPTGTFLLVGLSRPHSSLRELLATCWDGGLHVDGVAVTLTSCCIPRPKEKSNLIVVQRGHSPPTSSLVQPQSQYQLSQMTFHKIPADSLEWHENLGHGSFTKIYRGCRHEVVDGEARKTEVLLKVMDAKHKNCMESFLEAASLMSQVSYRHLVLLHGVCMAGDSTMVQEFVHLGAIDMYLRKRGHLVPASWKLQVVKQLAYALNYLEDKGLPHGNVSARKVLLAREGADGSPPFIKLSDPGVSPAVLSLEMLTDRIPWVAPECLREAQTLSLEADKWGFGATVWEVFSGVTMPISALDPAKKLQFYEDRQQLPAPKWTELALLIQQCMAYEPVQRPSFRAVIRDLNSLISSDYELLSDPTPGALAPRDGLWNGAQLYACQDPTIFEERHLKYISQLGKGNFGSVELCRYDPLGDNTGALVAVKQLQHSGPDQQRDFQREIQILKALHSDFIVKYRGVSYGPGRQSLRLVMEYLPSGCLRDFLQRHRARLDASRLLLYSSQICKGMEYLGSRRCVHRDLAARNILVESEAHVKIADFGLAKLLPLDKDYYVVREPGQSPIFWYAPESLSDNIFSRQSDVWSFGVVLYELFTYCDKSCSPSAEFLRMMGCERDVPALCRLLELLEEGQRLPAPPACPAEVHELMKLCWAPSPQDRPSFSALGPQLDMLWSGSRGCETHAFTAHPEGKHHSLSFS

[6] = target: Serine/threonine-protein kinase WNK3 (Homo sapiens) (UniProt Q9BYP7); assay: Inhibition of Wnk3 conserved Lys2 (DLKCDNIFITGPTGSVK) in human PBMC at 1 uM
Chain of Serine/threonine-protein kinase WNK3 (Homo sapiens) (Q9BYP7 whole entry): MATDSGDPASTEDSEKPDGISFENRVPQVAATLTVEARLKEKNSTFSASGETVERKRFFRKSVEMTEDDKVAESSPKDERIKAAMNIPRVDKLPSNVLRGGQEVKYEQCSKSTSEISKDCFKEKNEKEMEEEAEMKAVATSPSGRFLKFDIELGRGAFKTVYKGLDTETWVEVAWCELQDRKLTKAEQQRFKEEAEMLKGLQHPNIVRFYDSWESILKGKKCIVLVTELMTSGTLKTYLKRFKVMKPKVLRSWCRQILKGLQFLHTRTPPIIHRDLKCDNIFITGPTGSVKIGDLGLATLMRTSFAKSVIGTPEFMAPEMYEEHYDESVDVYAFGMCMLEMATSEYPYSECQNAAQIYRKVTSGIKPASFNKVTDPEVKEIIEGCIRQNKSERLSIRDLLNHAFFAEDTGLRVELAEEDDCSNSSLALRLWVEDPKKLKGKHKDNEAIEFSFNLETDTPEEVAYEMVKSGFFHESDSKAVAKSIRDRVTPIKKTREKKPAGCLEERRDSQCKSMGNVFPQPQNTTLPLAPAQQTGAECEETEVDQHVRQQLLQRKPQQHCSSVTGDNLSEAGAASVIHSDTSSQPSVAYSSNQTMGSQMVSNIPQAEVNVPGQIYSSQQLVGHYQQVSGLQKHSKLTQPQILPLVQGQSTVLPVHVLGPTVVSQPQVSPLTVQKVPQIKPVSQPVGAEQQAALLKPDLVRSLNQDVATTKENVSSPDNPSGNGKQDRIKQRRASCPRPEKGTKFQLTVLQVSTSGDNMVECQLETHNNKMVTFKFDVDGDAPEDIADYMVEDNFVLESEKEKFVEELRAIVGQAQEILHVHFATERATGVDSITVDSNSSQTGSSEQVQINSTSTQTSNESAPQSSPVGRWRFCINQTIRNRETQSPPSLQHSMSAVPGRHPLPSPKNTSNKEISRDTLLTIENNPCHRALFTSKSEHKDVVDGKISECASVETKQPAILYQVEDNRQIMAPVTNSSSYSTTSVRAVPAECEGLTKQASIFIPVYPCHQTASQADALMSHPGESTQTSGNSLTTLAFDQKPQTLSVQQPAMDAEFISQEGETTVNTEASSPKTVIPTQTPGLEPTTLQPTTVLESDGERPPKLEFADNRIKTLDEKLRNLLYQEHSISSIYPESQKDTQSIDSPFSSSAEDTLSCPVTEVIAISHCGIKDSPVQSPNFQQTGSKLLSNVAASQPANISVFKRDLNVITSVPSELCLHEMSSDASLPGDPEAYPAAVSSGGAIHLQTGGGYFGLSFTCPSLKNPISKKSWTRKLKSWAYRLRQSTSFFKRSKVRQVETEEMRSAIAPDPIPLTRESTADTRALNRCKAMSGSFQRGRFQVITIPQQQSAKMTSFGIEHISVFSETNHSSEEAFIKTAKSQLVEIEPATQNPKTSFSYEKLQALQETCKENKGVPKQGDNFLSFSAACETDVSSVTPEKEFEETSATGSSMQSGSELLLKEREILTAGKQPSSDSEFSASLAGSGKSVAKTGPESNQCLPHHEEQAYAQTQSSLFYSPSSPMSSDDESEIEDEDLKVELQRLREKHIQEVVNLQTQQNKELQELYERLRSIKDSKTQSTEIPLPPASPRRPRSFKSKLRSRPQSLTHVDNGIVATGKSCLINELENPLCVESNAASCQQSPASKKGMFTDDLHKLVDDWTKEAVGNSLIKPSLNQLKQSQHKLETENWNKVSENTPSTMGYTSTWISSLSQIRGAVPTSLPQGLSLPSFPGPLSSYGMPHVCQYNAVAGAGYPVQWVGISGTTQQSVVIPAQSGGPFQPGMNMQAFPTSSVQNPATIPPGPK

[7] = target: T2, Serine/threonine-protein kinase LATS1 (Homo sapiens) (UniProt O95835); assay: Inhibition of LATS1 conserved Lys1 (ALYATKTLR) in human PBMC at 0.1 uM
T2 sequence (whole entry): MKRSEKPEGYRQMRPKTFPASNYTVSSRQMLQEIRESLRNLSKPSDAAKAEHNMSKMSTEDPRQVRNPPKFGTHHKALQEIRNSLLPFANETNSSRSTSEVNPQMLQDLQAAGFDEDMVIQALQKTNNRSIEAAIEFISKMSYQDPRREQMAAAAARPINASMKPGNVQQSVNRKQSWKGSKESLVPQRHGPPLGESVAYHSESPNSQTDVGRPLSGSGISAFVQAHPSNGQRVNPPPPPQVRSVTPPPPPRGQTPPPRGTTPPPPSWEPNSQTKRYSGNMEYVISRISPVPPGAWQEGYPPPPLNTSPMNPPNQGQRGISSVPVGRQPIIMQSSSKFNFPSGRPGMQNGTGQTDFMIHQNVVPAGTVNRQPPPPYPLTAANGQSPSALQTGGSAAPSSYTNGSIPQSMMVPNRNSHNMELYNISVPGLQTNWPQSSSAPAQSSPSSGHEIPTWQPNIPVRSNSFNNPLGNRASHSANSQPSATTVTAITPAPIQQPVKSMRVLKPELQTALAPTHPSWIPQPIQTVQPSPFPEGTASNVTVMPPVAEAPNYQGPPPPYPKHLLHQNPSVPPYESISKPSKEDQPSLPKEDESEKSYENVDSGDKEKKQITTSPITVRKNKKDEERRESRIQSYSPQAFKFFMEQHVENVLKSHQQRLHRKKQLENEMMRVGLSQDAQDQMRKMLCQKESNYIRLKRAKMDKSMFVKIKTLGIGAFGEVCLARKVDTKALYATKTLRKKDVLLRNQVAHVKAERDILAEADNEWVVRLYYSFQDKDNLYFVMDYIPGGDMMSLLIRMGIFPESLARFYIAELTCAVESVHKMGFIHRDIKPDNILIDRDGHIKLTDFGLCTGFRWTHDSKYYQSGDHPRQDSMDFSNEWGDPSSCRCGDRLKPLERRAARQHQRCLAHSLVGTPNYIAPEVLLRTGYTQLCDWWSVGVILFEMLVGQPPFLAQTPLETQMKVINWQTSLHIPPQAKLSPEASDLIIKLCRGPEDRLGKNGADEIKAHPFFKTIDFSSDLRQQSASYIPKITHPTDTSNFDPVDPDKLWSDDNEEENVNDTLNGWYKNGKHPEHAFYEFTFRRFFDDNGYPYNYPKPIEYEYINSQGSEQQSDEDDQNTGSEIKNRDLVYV

[8] = target: Cyclin-dependent kinase 17 (Homo sapiens) (UniProt Q00537); assay: Inhibition of PCTAIRE2 conserved Lys2 (DLKPQNLLINEK) in human PBMC at 1 uM
Chain of Cyclin-dependent kinase 17 (Homo sapiens) (Q00537 whole entry, looked up): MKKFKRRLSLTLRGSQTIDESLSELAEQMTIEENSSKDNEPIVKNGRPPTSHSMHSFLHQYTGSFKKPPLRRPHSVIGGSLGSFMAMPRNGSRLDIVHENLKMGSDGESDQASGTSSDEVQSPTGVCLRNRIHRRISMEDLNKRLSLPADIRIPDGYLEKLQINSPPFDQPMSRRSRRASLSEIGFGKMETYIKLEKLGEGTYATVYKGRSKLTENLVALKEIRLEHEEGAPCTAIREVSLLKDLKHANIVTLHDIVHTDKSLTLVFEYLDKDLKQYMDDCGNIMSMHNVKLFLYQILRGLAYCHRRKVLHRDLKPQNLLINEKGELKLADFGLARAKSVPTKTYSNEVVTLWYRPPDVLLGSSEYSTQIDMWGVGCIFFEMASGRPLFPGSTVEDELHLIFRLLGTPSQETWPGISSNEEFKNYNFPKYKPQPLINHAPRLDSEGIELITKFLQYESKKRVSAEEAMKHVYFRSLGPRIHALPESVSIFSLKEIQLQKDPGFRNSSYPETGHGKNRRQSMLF

Chain of Proto-oncogene tyrosine-protein kinase Src (Homo sapiens) (P12931 2-536 limits assumed): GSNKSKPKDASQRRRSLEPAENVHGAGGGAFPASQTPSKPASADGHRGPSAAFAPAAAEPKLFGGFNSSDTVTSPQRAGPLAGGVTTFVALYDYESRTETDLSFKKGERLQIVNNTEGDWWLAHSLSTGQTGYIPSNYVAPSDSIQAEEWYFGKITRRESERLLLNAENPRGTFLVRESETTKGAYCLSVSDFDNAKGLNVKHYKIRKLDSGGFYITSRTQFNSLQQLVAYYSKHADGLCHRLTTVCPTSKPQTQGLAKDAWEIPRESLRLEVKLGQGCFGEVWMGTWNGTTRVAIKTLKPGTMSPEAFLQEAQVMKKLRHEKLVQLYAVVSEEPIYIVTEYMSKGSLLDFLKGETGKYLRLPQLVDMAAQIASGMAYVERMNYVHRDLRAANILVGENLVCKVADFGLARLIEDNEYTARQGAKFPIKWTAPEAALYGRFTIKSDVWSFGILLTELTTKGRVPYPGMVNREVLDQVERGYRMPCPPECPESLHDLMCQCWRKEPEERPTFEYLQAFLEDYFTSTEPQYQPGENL

CC(C)n1cc(-c2cc(-c3ccc(CN4CCOCC4)cc3)cnc2N)nn1
Kp uu [1]: 0.76 | inhibition [2]: -2.3% | inhibition [3]: 24.4% | inhibition [4]: 17.4% | inhibition [5]: 15.9% | inhibition [6]: 2.2% | inhibition [7]: 23.1% | inhibition [8]: 7.7%

From ChEMBL document CHEMBL4043168, “The design and SAR of a novel series of 2-aminopyridine based LRRK2 inhibitors” (Bioorg Med Chem Lett, 2017)
